# Measured values published in ChEMBL document CHEMBL4342477, “Single Nucleotide Polymorphisms in the Melanocortin His-Phe-Arg-Trp Sequences Decrease Tetrapeptide Potency and Efficacy” (ACS Med Chem Lett, 2020).
# Non-standard residues stand in square brackets, D forms with d. Residues, ends and D or L forms follow the SMILES beside them.
# What was measured:
# Assay type in all cases: functional, cell-based
# Melanocortin receptor 4 = Melanocortin receptor 4 (Mus musculus, UniProt P56450); assay: Agonist activity at mouse melanocortin receptor 4 expressed in HEK293 cells assessed as stimulation of cAMP accumulation incubated for 2 hrs by cAMP Alpha-screen assay
# [1] = molecular target: Melanocortin receptor 5 (Mus musculus) (UniProt P41149); assay: Agonist activity at mouse melanocortin receptor 5 expressed in HEK293 cells assessed as stimulation of cAMP accumulation at 100 uM incubated for 2 hrs by cAMP Alpha-screen assay relative to control
# [2] = molecular target: Melanocyte-stimulating hormone receptor (Mus musculus) (UniProt Q01727); assay: Agonist activity at mouse melanocortin receptor 1 expressed in HEK293 cells assessed as stimulation of cAMP accumulation at 100 uM incubated for 2 hrs by cAMP AlphaScreen assay relative to control
# Melanocortin receptor 3 = Melanocortin receptor 3 (Mus musculus, UniProt P33033); assay: Agonist activity at mouse melanocortin receptor 3 expressed in HEK293 cells assessed as stimulation of cAMP accumulation incubated for 2 hrs by cAMP Alpha-screen assay
# Melanocortin receptor 5 = Melanocortin receptor 5 (Mus musculus, UniProt P41149); assay: Agonist activity at mouse melanocortin receptor 5 expressed in HEK293 cells assessed as stimulation of cAMP accumulation incubated for 2 hrs by cAMP Alpha-screen assay
# [3] = molecular target: Melanocyte-stimulating hormone receptor (Mus musculus) (UniProt Q01727); assay: Agonist activity at mouse melanocortin receptor 1 expressed in HEK293 cells assessed as fold decrease in potency of stimulation of cAMP accumulation incubated for 2 hrs by cAMP AlphaScreen assay
# [4] = molecular target: Melanocortin receptor 3 (Mus musculus) (UniProt P33033); assay: Partial agonist activity at mouse melanocortin receptor 3 expressed in HEK293 cells assessed as stimulation of cAMP accumulation incubated for 2 hrs by cAMP Alpha-screen assay relative to NDP-MSH
# [5] = molecular target: Melanocortin receptor 4 (Mus musculus) (UniProt P56450); assay: Agonist activity at mouse melanocortin receptor 4 expressed in HEK293 cells assessed as fold decrease in potency of stimulation of cAMP accumulation incubated for 2 hrs by cAMP Alpha-screen assay
# [6] = molecular target: T1, Melanocyte-stimulating hormone receptor (Mus musculus, UniProt Q01727); assay: Agonist activity at mouse melanocortin receptor 1 expressed in HEK293 cells assessed as stimulation of cAMP accumulation incubated for 2 hrs by cAMP AlphaScreen assay
# [7] = molecular target: Melanocortin receptor 3 (Mus musculus) (UniProt P33033); assay: Agonist activity at mouse melanocortin receptor 3 expressed in HEK293 cells assessed as stimulation of cAMP accumulation at 100 uM incubated for 2 hrs by cAMP Alpha-screen assay relative to control
# [8] = molecular target: Melanocortin receptor 5 (Mus musculus) (UniProt P41149); assay: Partial agonist activity at mouse melanocortin receptor 5 expressed in HEK293 cells assessed as stimulation of cAMP accumulation incubated for 2 hrs by cAMP Alpha-screen assay relative to NDP-MSH
# [9] = molecular target: Melanocortin receptor 4 (Mus musculus) (UniProt P56450); assay: Partial agonist activity at mouse melanocortin receptor 4 expressed in HEK293 cells assessed as stimulation of cAMP accumulation incubated for 2 hrs by cAMP Alpha-screen assay relative to NDP-MSH
# [10] = molecular target: Melanocortin receptor 4 (Mus musculus) (UniProt P56450); assay: Agonist activity at mouse melanocortin receptor 4 expressed in HEK293 cells assessed as fold decrease in potency of stimulation of cAMP accumulation incubated for 2 hrs by cAMP Alpha-screen assay relative to Ac-His-DPhe-Arg-Trp-NH2
# [11] = molecular target: T1, Melanocyte-stimulating hormone receptor; assay: Agonist activity at mouse melanocortin receptor 1 expressed in HEK293 cells assessed as stimulation of cAMP accumulation incubated for 6 hrs by beta-galactosidase cAMP assay
# Melanocortin receptor 5, sequence (P41149 whole entry): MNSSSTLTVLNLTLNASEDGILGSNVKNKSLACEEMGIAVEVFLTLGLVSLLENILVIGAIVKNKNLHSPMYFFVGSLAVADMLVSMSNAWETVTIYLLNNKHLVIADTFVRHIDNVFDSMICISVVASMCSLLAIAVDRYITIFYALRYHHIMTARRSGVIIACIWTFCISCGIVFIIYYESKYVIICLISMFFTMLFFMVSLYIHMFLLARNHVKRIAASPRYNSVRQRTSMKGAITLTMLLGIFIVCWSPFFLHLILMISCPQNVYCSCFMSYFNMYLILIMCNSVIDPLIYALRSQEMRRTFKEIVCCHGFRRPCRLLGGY
# Melanocortin receptor 5 (Mus musculus), sequence (P41149 whole entry): as above
# Melanocortin receptor 3 (Mus musculus), sequence (P33033 whole entry): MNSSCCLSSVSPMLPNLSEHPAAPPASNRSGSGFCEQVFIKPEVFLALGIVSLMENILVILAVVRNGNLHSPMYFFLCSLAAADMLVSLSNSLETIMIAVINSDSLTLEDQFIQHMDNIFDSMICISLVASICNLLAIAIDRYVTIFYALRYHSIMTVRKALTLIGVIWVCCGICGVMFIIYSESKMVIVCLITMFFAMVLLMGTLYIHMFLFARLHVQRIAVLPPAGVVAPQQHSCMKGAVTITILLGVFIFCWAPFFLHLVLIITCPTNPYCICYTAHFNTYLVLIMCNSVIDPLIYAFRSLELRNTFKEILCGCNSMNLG
# Melanocortin receptor 3, sequence (P33033 whole entry): as above
# T1 sequence (Q01727 whole entry): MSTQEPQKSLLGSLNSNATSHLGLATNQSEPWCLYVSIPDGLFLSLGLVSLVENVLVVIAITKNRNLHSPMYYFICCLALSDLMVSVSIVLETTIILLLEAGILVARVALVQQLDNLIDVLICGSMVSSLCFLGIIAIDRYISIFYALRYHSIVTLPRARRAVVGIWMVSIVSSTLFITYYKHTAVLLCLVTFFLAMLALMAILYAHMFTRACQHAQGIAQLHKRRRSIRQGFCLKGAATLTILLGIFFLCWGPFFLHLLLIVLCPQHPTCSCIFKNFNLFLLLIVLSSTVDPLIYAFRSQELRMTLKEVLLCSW
# Melanocortin receptor 4 (Mus musculus), sequence (P56450 whole entry): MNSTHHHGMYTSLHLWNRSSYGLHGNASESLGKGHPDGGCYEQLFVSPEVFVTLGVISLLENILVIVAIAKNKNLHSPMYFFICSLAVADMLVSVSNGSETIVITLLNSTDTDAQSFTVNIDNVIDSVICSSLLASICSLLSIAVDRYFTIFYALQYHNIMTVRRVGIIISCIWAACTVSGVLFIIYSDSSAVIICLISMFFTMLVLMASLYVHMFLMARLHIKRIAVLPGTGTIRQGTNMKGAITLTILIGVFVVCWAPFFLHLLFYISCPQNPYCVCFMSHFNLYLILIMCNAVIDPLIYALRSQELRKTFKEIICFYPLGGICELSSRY
# Melanocortin receptor 4, sequence (P56450 whole entry): as above
# Melanocyte-stimulating hormone receptor (Mus musculus), sequence (Q01727 whole entry, looked up): as the sequence (Q01727 whole entry) above
EC50 (Melanocortin receptor 4),EC50 (Melanocortin receptor 3),EC50 (Melanocortin receptor 5),EC50 [6],SMILES,further results
> 100000 nM,> 100000 nM,,,CC(=O)N[C@@H](Cc1cnc[nH]1)C(=O)N[C@@H](CC(C)C)C(=O)N[C@@H](CCCNC(=N)N)C(=O)N[C@@H](Cc1c[nH]c2ccccc12)C(N)=O (Ac-HLRW-NH2),Emax [1]: 25%; Emax [2]: 25%
3100 nM,6000 nM,1700 nM,400 nM,CC(=O)N[C@@H](Cc1cnc[nH]1)C(=O)N[C@H](Cc1ccccc1)C(=O)N[C@@H](CS)C(=O)N[C@@H](Cc1c[nH]c2ccccc12)C(N)=O,fold change (FC) [3]: 25; Emax [4]: 85%; fold change (FC) [5]: 140
,,,,CC(=O)N[C@@H](Cc1cnc[nH]1)C(=O)N[C@H](Cc1ccccc1)C(=O)N[C@@H](CCCNC(=N)N)C(=O)N[C@@H](Cc1c[nH]c2ccccc12)C(N)=O,Emax [7]: 30%
> 100000 nM,,,1600 nM,CC(=O)N[C@@H](Cc1cnc[nH]1)C(=O)N[C@H](Cc1ccccc1)C(=O)N[C@@H](CCCNC(=N)N)C(=O)N[C@@H](CC(C)C)C(N)=O,Emax [1]: 40%; Emax [7]: 20%
90 nM,3000 nM,400 nM,1200 nM,CC(=O)N[C@@H](Cc1ccc(O)cc1)C(=O)N[C@H](Cc1ccccc1)C(=O)N[C@@H](CCCNC(=N)N)C(=O)N[C@@H](Cc1c[nH]c2ccccc12)C(N)=O (Ac-Y[dF]RW-NH2),Emax [8]: 80%; Emax [4]: 50%; Emax [9]: 65%
> 100000 nM,> 100000 nM,> 100000 nM,1300 nM,CC(=O)N[C@@H](Cc1cnc[nH]1)C(=O)N[C@H](Cc1ccccc1)C(=O)N[C@@H](CCCNC(=N)N)C(=O)NCC(N)=O,
500 nM,4000 nM,300 nM,1300 nM,CC(=O)N[C@@H](Cc1cnc[nH]1)C(=O)N[C@H](Cc1ccccc1)C(=O)N[C@@H](Cc1cnc[nH]1)C(=O)N[C@@H](Cc1c[nH]c2ccccc12)C(N)=O,Emax [4]: 85%
> 100000 nM,> 100000 nM,,900 nM,CC(=O)N[C@@H](Cc1cnc[nH]1)C(=O)N[C@H](Cc1ccccc1)C(=O)N[C@@H](CCCNC(=N)N)C(=O)N[C@@H](CCCNC(=N)N)C(N)=O,Emax [1]: 20%
3800 nM,,2000 nM,90 nM,CC(=O)N[C@@H](Cc1cnc[nH]1)C(=O)N[C@H](Cc1ccccc1)C(=O)N[C@@H](CC(C)C)C(=O)N[C@@H](Cc1c[nH]c2ccccc12)C(N)=O,Emax [7]: 25%; Emax [9]: 85%
> 100000 nM,> 100000 nM,> 100000 nM,> 100000 nM,CC(=O)N[C@@H](Cc1cnc[nH]1)C(=O)N[C@H](C(=O)N[C@@H](CCCNC(=N)N)C(=O)N[C@@H](Cc1c[nH]c2ccccc12)C(N)=O)C(C)C (Ac-HVRW-NH2),
21 nM,,11 nM,,CC(=O)N[C@@H](Cc1cnc[nH]1)C(=O)N[C@H](Cc1ccccc1)C(=O)N[C@@H](CCCN=C(N)N)C(=O)N[C@@H](Cc1c[nH]c2ccccc12)C(N)=O,
> 100000 nM,,,1600 nM,CC(=O)N[C@@H](Cc1cnc[nH]1)C(=O)N[C@H](Cc1ccccc1)C(=O)N[C@@H](CCCNC(=N)N)C(=O)N[C@@H](CO)C(N)=O,Emax [1]: 75%; Emax [7]: 50%
270 nM,1300 nM,270 nM,1600 nM,CC(=O)N[C@@H](CCC(N)=O)C(=O)N[C@H](Cc1ccccc1)C(=O)N[C@@H](CCCNC(=N)N)C(=O)N[C@@H](Cc1c[nH]c2ccccc12)C(N)=O,Emax [4]: 80%; fold change (FC) [10]: 10; Emax [9]: 80%
,,220 nM,,CC(=O)N[C@@H](Cc1c[nH]cn1)C(=O)N[C@@H](Cc1ccccc1)C(=O)N[C@@H](CCCN=C(N)N)C(=O)N[C@@H](Cc1c[nH]c2ccccc12)C(N)=O,
1000 nM,,2000 nM,2100 nM,CC(=O)N1CCC[C@H]1C(=O)N[C@H](Cc1ccccc1)C(=O)N[C@@H](CCCN=C(N)N)C(=O)N[C@@H](Cc1c[nH]c2ccccc12)C(N)=O (Ac-P[dF]RW-NH2),Emax [8]: 80%; EC50 [11]: 4000 nM; Emax [9]: 60%
